1 substance from patent US20080254081A1, “Moist Wipe and Method of Making Same” (GEORGIA-PACIFIC CONSUMER PRODUCTS LP, priority 2002, published 2008) can be followed below.

The assay relates to test microbes. The experiment in a line: Zone of Inhibition Test, antimicrobial efficacy overall. It counts as cell-based. As to conditions: benzalkonium chloride in imbuement. The source says: Each fabric was placed in a commercially prepared imbuement containing benzalkonium chloride as the functional cationic additive (an antimicrobial agent).
All test results are the average of testing three batches of sample moist wipes. […] Therefore, all of these examples killed the test microbes when benzalkonium chloride was at the measured concentration in solution in the lotion (Table V). The difference (Example 10 versus Example 11) is when comparing the area around the circular piece of test wet wipe. As the benzalkonium chloride (from the imbuement) diffuses away from the test disk, the concentration of benzalkonium chloride decreases with increasing distance from the test disk. Each test microbe has a different minimum inhibitory concentration (MIC) for benzalkonium chloride to effectively kill that microbe. Therefore, if the concentration of benzalkonium chloride is above the MIC, it is observed as a visible zone where the growth of that test microbe has been inhibited. For this reason, some test microbes show no additional zone around the disk (code 0 in Table V), some show a partial zone around the disk (code 1), some show a small inhibition zone (code 2), while other test microbes show a larger inhibition zone (code 3). Therefore, comparisons among example wet wipes can only be made while comparing the same test microbe.

Turning to benzalkonium chloride, the “concentration remaining in solution shown to be sufficient for antibacterial efficacy” value stood at 0.029%.
